ChEMBL document CHEMBL1152402, “Discovery of a new class of catalytic topoisomerase II inhibitors targeting the ATP-binding site by structure based design. Part I” (Bioorg Med Chem Lett, 2009)

Legend:
[1] = biological target: T1, DNA topoisomerase 2-alpha (Homo sapiens, UniProt P11388); test: Inhibition of ATPase activity of human topoisomerase 2 alpha at 10 uM
[2] = biological target: T1, DNA topoisomerase 2-alpha; test: Inhibition of ATPase activity of human topoisomerase 2 alpha

T1 sequence (P11388 whole entry): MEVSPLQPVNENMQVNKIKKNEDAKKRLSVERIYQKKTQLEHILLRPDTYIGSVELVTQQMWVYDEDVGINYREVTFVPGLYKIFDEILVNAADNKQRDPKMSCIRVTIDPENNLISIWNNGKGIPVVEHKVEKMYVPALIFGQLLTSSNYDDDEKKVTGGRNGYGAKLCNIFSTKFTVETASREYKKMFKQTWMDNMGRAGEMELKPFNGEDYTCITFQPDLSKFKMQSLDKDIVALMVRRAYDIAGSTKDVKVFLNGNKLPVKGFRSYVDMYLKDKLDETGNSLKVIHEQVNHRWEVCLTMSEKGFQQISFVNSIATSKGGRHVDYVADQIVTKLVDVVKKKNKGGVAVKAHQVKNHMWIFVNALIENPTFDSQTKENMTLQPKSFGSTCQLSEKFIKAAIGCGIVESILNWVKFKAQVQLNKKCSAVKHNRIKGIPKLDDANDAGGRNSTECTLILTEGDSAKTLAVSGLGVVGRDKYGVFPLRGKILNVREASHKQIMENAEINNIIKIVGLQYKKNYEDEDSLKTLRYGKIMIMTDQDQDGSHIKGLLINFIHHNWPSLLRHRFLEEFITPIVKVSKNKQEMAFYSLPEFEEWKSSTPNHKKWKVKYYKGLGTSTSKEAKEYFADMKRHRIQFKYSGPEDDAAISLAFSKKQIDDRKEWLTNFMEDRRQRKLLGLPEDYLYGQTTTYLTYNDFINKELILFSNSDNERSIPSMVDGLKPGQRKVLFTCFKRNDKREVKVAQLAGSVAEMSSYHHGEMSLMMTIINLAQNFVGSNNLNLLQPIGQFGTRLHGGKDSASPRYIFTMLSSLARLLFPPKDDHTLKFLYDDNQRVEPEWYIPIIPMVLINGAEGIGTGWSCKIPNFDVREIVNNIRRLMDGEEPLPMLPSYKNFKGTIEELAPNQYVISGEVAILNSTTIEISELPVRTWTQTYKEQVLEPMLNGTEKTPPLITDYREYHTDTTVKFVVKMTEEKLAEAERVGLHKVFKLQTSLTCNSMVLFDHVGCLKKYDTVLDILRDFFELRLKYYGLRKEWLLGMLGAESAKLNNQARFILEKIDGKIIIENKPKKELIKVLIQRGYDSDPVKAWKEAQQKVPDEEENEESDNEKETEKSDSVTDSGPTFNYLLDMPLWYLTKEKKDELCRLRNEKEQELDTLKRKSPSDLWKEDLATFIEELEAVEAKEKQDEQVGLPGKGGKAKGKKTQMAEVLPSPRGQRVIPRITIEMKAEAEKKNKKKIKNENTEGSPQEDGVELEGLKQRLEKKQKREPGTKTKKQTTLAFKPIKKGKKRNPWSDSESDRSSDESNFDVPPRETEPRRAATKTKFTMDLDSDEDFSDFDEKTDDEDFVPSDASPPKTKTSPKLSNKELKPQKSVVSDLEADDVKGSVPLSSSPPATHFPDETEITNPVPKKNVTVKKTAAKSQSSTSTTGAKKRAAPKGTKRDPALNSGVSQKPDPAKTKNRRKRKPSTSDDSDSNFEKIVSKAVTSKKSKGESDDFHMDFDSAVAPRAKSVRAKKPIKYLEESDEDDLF

inhibition [1] | IC50 [2] | SMILES
7% |  | Cn1cnc2c(NC(C)(C)C)nc(Nc3ccc4ncsc4c3)nc21
 | 1700 nM | CC(C)(C)Nc1nc(Nc2ccc3ncsc3c2)nc2[nH]cnc12
